This is an account of results in PubChem BioAssay (NCI).

Where “and” joins values, the source holds several entries; their conditions need not be identical. Equal entries are not always repeated.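 A five-concentration, 48-hour dose response in 96-well plates underlies each endpoint, interpolated linearly between surrounding concentrations. GI50 marks 50% less growth. The concentration for full growth arrest is given as TGI.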 A value given as a limit tells only on which side of the number the result lay.

Some test systems named below: HL-60(TB) leukemia; HOP-62 NSCLC; HOP-92 NSCLC; MALME-3M melanoma; NCI-H23 lung; OVCAR-3 ovarian; SK-MEL-2 melanoma; SK-MEL-5 melanoma; SNB-19 CNS; UO-31 renal.
Test in all cases: inhibition of tumour cell growth, NCI panel, 48 h

With `COc1ccc(-c2cc(=O)c3c(OC)c(OC)c(OC)c(OC)c3o2)cc1OC`, the TGI was 59 µM with HL-60(TB) leukemia; greater than 100 µM in the test on HOP-62 NSCLC; 74.4 µM with HOP-92 NSCLC; greater than 100 µM in the test on MALME-3M melanoma; greater than 100 µM in the test on NCI-H23 lung; greater than 100 µM with OVCAR-3 ovarian. Further, the TGI in the test on SK-MEL-2 melanoma, in the test with SK-MEL-5 melanoma, with SNB-19 CNS and in the test on UO-31 renal was greater than 100 µM throughout.

For the molecule `COc1cc2ccc3c4c(OC)cc(OC)c(OC)c4c(=O)n(C)c3c2cc1OC`, the GI50 with HL-60(TB) leukemia was 0.351 µM; with HOP-62 NSCLC it was 1.4 µM; in the test with HOP-92 NSCLC it was 1.55 µM; in the test with MALME-3M melanoma it was 13.4 µM; in the test on NCI-H23 lung, 2.09 µM; in the test with OVCAR-3 ovarian it was 0.755 µM. In addition, the values for the GI50 in the test with SK-MEL-2 melanoma and with SK-MEL-5 melanoma were 3.29 µM and 4.11 µM, respectively. Moreover, the TGI with HL-60(TB) leukemia is 1.16 µM; in the test with HOP-62 NSCLC, 7.11 µM and > 43.5 µM; in the test on HOP-92 NSCLC, 16.7 µM and 40.4 µM; with MALME-3M melanoma it was 16.7 µM and > 49.6 µM; in the test with NCI-H23 lung it was 16.7 µM and > 46 µM; in the test with OVCAR-3 ovarian, 7.02 µM and > 40.5 µM. Also, the TGI was 16.7 µM and > 47.6 µM with SK-MEL-2 melanoma; 16.7 µM and 35.1 µM with SK-MEL-5 melanoma; greater than 51.7 µM in the test on SNB-19 CNS; greater than 48.9 µM with UO-31 renal.

With `CCOC(=O)c1ccc(N(CCOS(C)(=O)=O)CCOS(C)(=O)=O)cc1C`, the GI50 was 8.08 µM in the test with HL-60(TB) leukemia; 17.6 µM with HOP-62 NSCLC; 36.7 µM in the test with HOP-92 NSCLC; 29 µM in the test on MALME-3M melanoma; 15.1 µM in the test on NCI-H23 lung; 18.8 µM with OVCAR-3 ovarian. Also, the GI50 in the test with SK-MEL-2 melanoma was 28.6 µM; in the test with SK-MEL-5 melanoma, 35.9 µM; with SNB-19 CNS it was 62.6 µM; in the test on UO-31 renal, 23.1 µM. Further, the TGI in the test with HL-60(TB) leukemia was 51.2 µM; in the test with HOP-62 NSCLC, 55 µM; in the test on HOP-92 NSCLC, greater than 100 µM; in the test on MALME-3M melanoma it was greater than 100 µM; in the test with NCI-H23 lung it was 55.5 µM; in the test on OVCAR-3 ovarian, 44 µM. Moreover, the TGI was 67.5 µM in the test on SK-MEL-2 melanoma, greater than 100 µM in the test on SK-MEL-5 melanoma, greater than 100 µM in the test with SNB-19 CNS and 45.9 µM in the test with UO-31 renal.

Consider `CN(C)C(=O)/N=c1\ss/c(=N\C(=S)N(C)C)n1-c1ccccc1`, for which the GI50 in the test with HL-60(TB) leukemia was 6.59 µM. Further, the TGI in the test with HL-60(TB) leukemia was 44.8 µM; in the test on HOP-62 NSCLC, greater than 100 µM; in the test on HOP-92 NSCLC, greater than 100 µM; in the test with MALME-3M melanoma it was greater than 100 µM; in the test on NCI-H23 lung it was greater than 100 µM; in the test on OVCAR-3 ovarian, greater than 65.6 µM. Also, the TGI in the test on SK-MEL-2 melanoma, in the test with SK-MEL-5 melanoma, in the test on SNB-19 CNS and in the test on UO-31 renal was greater than 100 µM in each case.

Consider `COc1cc(/C=C2\CN(C)C/C(=C\c3cc(OC)c(OC)c(OC)c3)C2=O)cc(OC)c1OC`, for which the GI50 with HL-60(TB) leukemia was 0.34 µM; in the test with HOP-62 NSCLC, 0.36 µM; in the test with HOP-92 NSCLC it was 0.774 µM; in the test on MALME-3M melanoma, 0.209 µM; in the test on NCI-H23 lung, 0.42 µM; in the test on OVCAR-3 ovarian, 0.328 µM. In addition, the GI50 with SK-MEL-2 melanoma is 0.305 µM; in the test on SK-MEL-5 melanoma, 0.204 µM; in the test with SNB-19 CNS, 1.14 µM; with UO-31 renal it was 0.28 µM. Further, the TGI in the test with HL-60(TB) leukemia is 1.67 µM; in the test on HOP-62 NSCLC, 1.13 µM; in the test on HOP-92 NSCLC it was 2.8 µM; with MALME-3M melanoma, 0.435 µM; in the test with NCI-H23 lung, 1.61 µM; in the test on OVCAR-3 ovarian, 0.892 µM. Besides, the TGI is 0.959 µM in the test on SK-MEL-2 melanoma, 0.434 µM with SK-MEL-5 melanoma, 2.6 µM in the test on SNB-19 CNS and 0.818 µM with UO-31 renal.

Regarding `CC#CS(=O)(=O)c1ccccc1`, the TGI in the test with HL-60(TB) leukemia was 3.81 µM; in the test on HOP-62 NSCLC, 47.2 µM; in the test with HOP-92 NSCLC it was 6.96 µM; in the test on MALME-3M melanoma, 12.5 µM; with NCI-H23 lung, 18.8 µM; in the test with OVCAR-3 ovarian, 3.59 µM. Further, the TGI in the test on SK-MEL-2 melanoma came out at 32.5 µM; in the test with SK-MEL-5 melanoma, 15.4 µM; in the test on SNB-19 CNS it was 27.2 µM; in the test with UO-31 renal it was 3.58 µM.

As to `C=C1C(=O)O[C@H]2[C@H]1CC/C(Cn1cc(Cn3ccc4ccccc43)nn1)=C\CC[C@@]1(C)O[C@@H]21`, the GI50 is 1.2 µM in the test with HL-60(TB) leukemia; 6.96 µM in the test with HOP-62 NSCLC; 1.01 µM in the test with HOP-92 NSCLC; 1.59 µM in the test with MALME-3M melanoma; 2.5 µM in the test with NCI-H23 lung; 1.62 µM with OVCAR-3 ovarian. Further, the GI50 in the test on SK-MEL-2 melanoma is 1.73 µM; in the test on SK-MEL-5 melanoma, 1.97 µM; in the test with SNB-19 CNS, 3.88 µM; in the test with UO-31 renal, 1.26 µM. In addition, the TGI was determined as 3.79 µM in the test on HL-60(TB) leukemia; 20.1 µM with HOP-62 NSCLC; 2.29 µM with HOP-92 NSCLC; 3.34 µM in the test with MALME-3M melanoma; 6.49 µM in the test on NCI-H23 lung; 3.01 µM in the test on OVCAR-3 ovarian. Further, the TGI came out at 3.96 µM with SK-MEL-2 melanoma, 4.38 µM with SK-MEL-5 melanoma, 15.7 µM in the test with SNB-19 CNS and 2.53 µM in the test on UO-31 renal.

`CN[C@]12CC3(C=CC(=O)C=C3)O[C@@]1(Cc1ccc(OC)cc1)N(C)C(=O)N2`: the GI50 was 1.84 µM in the test with HL-60(TB) leukemia; 2.48 µM in the test with HOP-62 NSCLC; 2.15 µM in the test on HOP-92 NSCLC; 2.69 µM in the test on MALME-3M melanoma; 2.88 µM in the test with NCI-H23 lung; 0.793 µM in the test with OVCAR-3 ovarian. The GI50 was 2.96 µM in the test on SK-MEL-2 melanoma, 1.65 µM in the test on SK-MEL-5 melanoma, 3.63 µM in the test with SNB-19 CNS and 1.47 µM in the test with UO-31 renal. The TGI is 6.49 µM in the test on HL-60(TB) leukemia; 11.2 µM with HOP-62 NSCLC; 4.73 µM in the test with HOP-92 NSCLC; 7.85 µM with MALME-3M melanoma; 9.35 µM with NCI-H23 lung; 4.14 µM in the test with OVCAR-3 ovarian. The TGI was found to be 10.9 µM in the test with SK-MEL-2 melanoma, 3.15 µM in the test on SK-MEL-5 melanoma, 14.5 µM in the test with SNB-19 CNS and 2.89 µM in the test on UO-31 renal.
